Measured values: the supplement of paper PMC10307832

Columns and labels:
Experiment in all cases: relative viability (nuclei count vs DMSO), 5 days (fraction); higher = more cells survive
[1] = compound: C1COCCN1C2=NC(=NC3=C2OC4=C3C=CC=N4)C5=CC(=CC=C5)NC(=O)C6=CN=C(C=C6)N
In short: (§1)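 Five library-drug doses spaced by √10 were pinned onto vehicle-anchored 1536-well plates of lung cancer cell lines that had been kept overnight at 37 °C. Cells went 5 days without medium change, then were fixed, permeabilised and Hoechst-stained together, imaged at 4× and counted by MetaXpress. Viability is the ratio of treated-well to vehicle-well nuclei, taken as a median over plates. Plates required control CV below 25% and at least one doubling.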

SGI-1776 = compound: CN1CCC(CNc2ccc3ncc(-c4cccc(OC(F)(F)F)c4)n3n2)CC1 [SGI-1776]
In short: as §1

Entinostat = compound: Nc1ccccc1NC(=O)c1ccc(CNC(=O)OCc2cccnc2)cc1 [Entinostat]
In short: as §1

SGI-1776 + Crizotinib = compound: CN1CCC(CNc2ccc3ncc(-c4cccc(OC(F)(F)F)c4)n3n2)CC1 [SGI-1776] + C[C@@H](Oc1cc(-c2cnn(C3CCNCC3)c2)cnc1N)c1c(Cl)ccc(F)c1Cl [Crizotinib] (partner 1 µM)
In short: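 Values are medians from duplicate plates. Each reflects relative viability, defined as the nuclei count of treated wells over that of vehicle wells. Lung cancer cell lines in 1536-well plates were pin-tool dosed one day after seeding with one drug alone or with a fixed anchor-drug dose plus five library-drug doses (not always all listed) in √10 steps, then fixed, stained and imaged at 4× after 5 days.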

Row | Cell Line | relative viability ([1]; 0.02 µM) | relative viability ([1]; 0.06325 µM) | relative viability ([1]; 0.2 µM) | relative viability ([1]; 0.6325 µM) | relative viability ([1]; 2 µM) | relative viability (SGI-1776; 0.08 µM) | relative viability (SGI-1776; 0.8 µM) | relative viability (SGI-1776; 2.53 µM) | relative viability (SGI-1776; 8 µM) | relative viability (Entinostat; 0.02 µM) | relative viability (Entinostat; 0.06325 µM) | relative viability (Entinostat; 0.2 µM) | relative viability (Entinostat; 0.6325 µM) | relative viability (Entinostat; 2 µM) | relative viability (SGI-1776 + Crizotinib; first compound 0.08 µM) | relative viability (SGI-1776 + Crizotinib; first compound 0.8 µM) | relative viability (SGI-1776 + Crizotinib; first compound 2.53 µM) | relative viability (SGI-1776 + Crizotinib; first compound 8 µM)
1 | NCI-H3122 | 1.03 | 1.01 | 1.01 | 1.05 | 0.862 | 1.03 | 0.99 | 1.04 | 1.05 | 1 | 1.03 | 1.02 | 0.959 | 0.677 | 0.284 | 0.3 | 0.295 | 0.335
2 | PC-3 [JPC-3] | 1.06 | 1.05 | 1.06 | 1.03 | 0.927 | 1.07 | 1.09 | 1.01 | 0.805 | 1.03 | 1.01 | 1.02 | 0.57 | 0.488 | 0.978 | 1.05 | 0.981 | 0.904
3 | PC-14 | 0.974 | 1.14 | 1.03 | 0.852 | 0.525 | 1.09 | 1.03 | 0.972 | 0.491 | 1.08 | 1.11 | 1.06 | 0.424 | 0.14 | 0.889 | 0.895 | 0.96 | 0.79
4 | RERF-LC-KJ | 1.01 | 1.05 | 0.973 | 0.928 | 0.743 | 1.03 | 1 | 0.957 | 0.843 | 0.952 | 0.986 | 0.922 | 0.631 | 0.297 | 0.886 | 0.786 | 0.836 | 0.865
5 | SK-LU-1 | 1.11 | 1.12 | 1.03 | 1.01 | 0.554 | 1.23 | 1.09 | 1.03 | 0.839 | 1.01 | 1.08 | 1.02 | 0.698 | 0.57 | 1.04 | 0.833 | 0.756 | 0.352
6 | SK-MES-1 | 1.02 | 1.08 | 0.925 | 0.868 | 0.673 | 1.06 | 1.07 | 1 | 0.868 | 1.01 | 1.15 | 1.19 | 1.02 | 0.701 | 1.11 | 0.947 | 1.02 | 0.979
7 | SW 1573 | 0.954 | 1.09 | 1.03 | 0.918 | 0.611 | 1.06 | 0.965 | 0.959 | 0.754 | 0.998 | 1.11 | 1.09 | 1 | 0.874 | 0.904 | 0.835 | 0.624 | 0.395
